Laboratory results taken from patent US9334279B2, “Hepatitis C virus inhibitors” (BRISTOL-MYERS SQUIBB COMPANY, priority 2012, dated 2016).
Where two headings read alike, the source gives them in different places.

Legend:
[1] = rcm bond, 15-membered ring, Hoveyda-Grubbs II
HCV GT1a(H77) replicon = assay: HCV replicon luciferase reporter assay, genotype 1a; type: cell-based, HCV genotype 1a; settings: Hepatitis C virus, 72 h, HUH-7 cells, Renilla luciferase, 3 days incubation, read-out: LE_1a (EC50, range)
In short: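 Huh-7 cells stably carried a GT1a(H77) Renilla luciferase replicon with NS3 P1496L and NS5A S2204I adaptive mutations. Luminescence was read after 2 h with 7.5 μM EnduRen, and EC50 came from a four-parameter logistic fit; CC50 came from multiplexed Cell Titer-Blue (8 h).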

HCV GT1b(Con1) replicon = assay: HCV replicon luciferase reporter assay, genotype 1b; type: cell-based, HCV genotype 1b; settings: Hepatitis C virus, 72 h, HUH-7 cells, Renilla luciferase, 3 days incubation, read-out: LE_1b (EC50, range)
In short: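 HUH-7 cells stably carrying a Con1 GT1b replicon with Renilla luciferase and Ser1179Ile adaptive mutation; 3.0×10^3 cells/well, DMEM 4% FCS, 0.5% DMSO, twenty-point 3-fold titration, 3 days 37 °C. Luminescence 2 h after 7.5 μM EnduRen; EC50 by four-parameter logistic fit. CC50 from multiplexed Cell Titer-Blue fluorescence (8 h).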

CC1CC/C=C\[C@@H]2C[C@@]2(C(=O)NS(=O)(=O)C2(C)CC2)NC(=O)[C@@H]2C[C@@H](O)CN2C(=O)[C@@H](NC(=O)OC(C)(C)C)[C@H](C)C1 (stereo partly shown)
ring closure, isolated yield ([1]; from C=CCCC(C)C[C@@H](C)[C@H](NC(=O)OC(C)(C)C)C(=O)N1C[C@H](O)C[C@H]1C(=O)N[C@]1(C(=O)NS(=O)(=O)C2(C)CC2)C[C@H]1C=C, 1,2-dichloroethane, 8.8 mM, 80.0 °C, 2.0 h): 70%

CC[C@@H]1CC(C)CC/C=C\[C@@H]2C[C@@]2(C(=O)NS(=O)(=O)C2CC2)NC(=O)[C@@H]2C[C@@H](O)CN2C(=O)[C@H]1NC(=O)OC(C)(C)C (stereo partly shown)
ring closure, isolated yield ([1]; from C=CCCC(C)C[C@@H](CC)[C@H](NC(=O)OC(C)(C)C)C(=O)N1C[C@@H](O)CC1C(=O)N[C@]1(C(=O)NS(=O)(=O)C2CC2)C[C@H]1C=C, dichloroethane, 26.6 mM, 95.0 °C, 16.0 h): 47%

CC(C)Oc1ccc(-c2cc(O[C@@H]3C[C@H]4C(=O)N[C@]5(C(=O)NS(=O)(=O)C6(C)CC6)C[C@H]5/C=C\CC[C@@H](C)C[C@@H](C)[C@H](NC(=O)OC5(C(F)(F)F)CCCOC5)C(=O)N4C3)cc(-c3nccs3)n2)cn1 (stereo partly drawn) [Compound 1047, 3-(trifluoromethyl)tetrahydro-2H-pyran-3-yl ((2R,6S,7R,9R,13aS,14aR,16aS,Z)-2-((6′-isopropoxy-6-(thiazol-2-yl)-[2,3′-bipyridin]-4-yl)oxy)-7,9-dimethyl-14a-(((1-methylcyclopropyl)sulfonyl)carbamoyl)-5,16-dioxo-1,2,3,5,6,7,8,9,10,11,13a,14,14a,15,16,16a-hexadecahydrocyclopropa[e]pyrrolo[1,2-a][1,4]diazacyclopentadecin-6-yl)carbamate]
EC50 (HCV GT1a(H77) replicon): 1.01 to 5 nM | EC50 (HCV GT1b(Con1) replicon): 0.51 to 1 nM

CC(C)Oc1ccc(-c2cc(O[C@@H]3C[C@H]4C(=O)N[C@]5(C(=O)NS(=O)(=O)C6(C)CC6)C[C@H]5/C=C\CC[C@@H](C)C[C@@H](C)[C@H](NC(=O)OC(C)(C)C(F)(F)F)C(=O)N4C3)cc(-c3ncccn3)n2)cc1 [Compound 1019, 1,1,1-trifluoro-2-methylpropan-2-yl ((2R,6S,7R,9R,13aS,14aR,16aS,Z)-2-((2-(4-isopropoxyphenyl)-6-(pyrimidin-2-yl)pyridin-4-yl)oxy)-7,9-dimethyl-14a-(((1-methylcyclopropyl)sulfonyl)carbamoyl)-5,16-dioxo-1,2,3,5,6,7,8,9,10,11,13a,14,14a,15,16,16a-hexadecahydrocyclopropa[e]pyrrolo[1,2-a][1,4]diazacyclopentadecin-6-yl)carbamate]
EC50 (HCV GT1a(H77) replicon): 1.01 to 5 nM | EC50 (HCV GT1b(Con1) replicon): 1.01 to 5 nM

CC[C@@H]1O[C@H](C)CC/C=C\[C@@H]2C[C@@]2(C(=O)NS(=O)(=O)C2(C)CC2)NC(=O)[C@@H]2C[C@@H](Oc3cc(-c4ccc(OC(C)C)cc4)nc(-c4cncs4)c3)CN2C(=O)[C@H]1NC(=O)OC1(C(F)(F)F)CCCOC1 (stereo partly drawn) [Compound 1034, 3-(trifluoromethyl)tetrahydro-2H-pyran-3-yl ((2R,6S,7S,9R,13aS,14aR,16aS,Z)-7-ethyl-2-((2-(4-isopropoxyphenyl)-6-(thiazol-5-yl)pyridin-4-yl)oxy)-9-methyl-14a-(((1-methylcyclopropyl)sulfonyl)carbamoyl)-5,16-dioxo-2,3,5,6,7,9,10,11,13a,14,14a,15,16,16a-tetradecahydro-1H-cyclopropa[i]pyrrolo[1,2-e][1,5,8]oxadiazacyclopentadecin-6-yl)carbamate]
EC50 (HCV GT1a(H77) replicon): 1.01 to 5 nM | EC50 (HCV GT1b(Con1) replicon): 0.51 to 1 nM

C[C@@H]1CC/C=C\[C@@H]2C[C@@]2(C(=O)NS(=O)(=O)C2(C)CC2)NC(=O)[C@@H]2C[C@@H](Oc3cc(-c4ccccc4)nc(-c4nccs4)c3)CN2C(=O)[C@@H](NC(=O)OC(C)(C)C(F)(F)F)[C@H](C)C1 [Compound 1060, 1,1,1-trifluoro-2-methylpropan-2-yl ((2R,6S,7R,9R,13aS,14aR,16aS,Z)-7,9-dimethyl-14a-(((1-methylcyclopropyl)sulfonyl)carbamoyl)-5,16-dioxo-2-((2-phenyl-6-(thiazol-2-yl)pyridin-4-yl)oxy)-1,2,3,5,6,7,8,9,10,11,13a,14,14a,15,16,16a-hexadecahydrocyclopropa[e]pyrrolo[1,2-a][1,4]diazacyclopentadecin-6-yl)carbamate]
EC50 (HCV GT1a(H77) replicon): 0.51 to 1 nM | EC50 (HCV GT1b(Con1) replicon): 0.1 to 0.5 nM
